Source: patent publication US8552002B2 (Novartis AG, priority 2004, dated 2013)
Like-named read-outs stand apart in the source and are kept apart here.

Tests used:
KDR = molecular target: T1, KDR (Homo sapiens, UniProt P35968); experiment: Inhibitory activity against KDR (VEGF-R2), in vitro data of Examples 170 and 207; format: biochemical; conditions: 10 μM, read-out: KDR inhibition at 10 μM
T1 construct: expressed in transfected cells; host or cells: CHO cells
Summary of the method: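 KDR tyrosine phosphorylation detected by luminescence after overnight 4° C capture of 20 μg lysate protein with PY20:AP antibody. Lysates came from cells given compound for 2 h at 37° C, then final 20 ng/ml VEGF for 5 min; compound-free medium as control.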

FGFR3 (K650E) = molecular target: T2, FGFR3 (K650E) (Homo sapiens, UniProt P22607, K650E); experiment: Recombinant GST-FGFR-3-K650E tyrosine kinase assay (33P into poly(Glu,Tyr)); format: biochemical; conditions: 10 μM
T2 construct: amino acids 411-806 of the cytoplasmic domain of human FGFR-3, N-terminally fused to GST; made in house; host or cells: Sf9 insect cells (baculovirus)
T2 sequence (P22607 411-806 K650E): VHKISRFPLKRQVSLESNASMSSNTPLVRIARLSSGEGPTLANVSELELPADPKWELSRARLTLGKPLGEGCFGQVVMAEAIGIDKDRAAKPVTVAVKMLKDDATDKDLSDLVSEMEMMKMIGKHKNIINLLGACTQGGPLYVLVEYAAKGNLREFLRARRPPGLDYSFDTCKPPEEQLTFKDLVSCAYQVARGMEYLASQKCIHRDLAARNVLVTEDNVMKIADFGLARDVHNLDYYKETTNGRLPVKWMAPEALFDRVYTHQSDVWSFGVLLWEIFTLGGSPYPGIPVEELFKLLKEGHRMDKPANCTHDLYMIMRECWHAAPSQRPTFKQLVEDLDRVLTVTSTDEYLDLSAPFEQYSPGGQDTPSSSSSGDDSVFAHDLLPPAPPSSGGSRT

Tek = molecular target: T3, Tek (Homo sapiens, UniProt Q02763); experiment: Recombinant GST-Tek (Tie-2) tyrosine kinase assay (33P into poly(Glu,Tyr)); format: biochemical; conditions: Examples 1 to 169
T3 construct: amino acids 773-1124 of the cytoplasmic kinase domain of human Tek, N-terminally fused to GST; made in house; host or cells: Sf9 insect cells (baculovirus)
T3 sequence (Q02763 773-1124): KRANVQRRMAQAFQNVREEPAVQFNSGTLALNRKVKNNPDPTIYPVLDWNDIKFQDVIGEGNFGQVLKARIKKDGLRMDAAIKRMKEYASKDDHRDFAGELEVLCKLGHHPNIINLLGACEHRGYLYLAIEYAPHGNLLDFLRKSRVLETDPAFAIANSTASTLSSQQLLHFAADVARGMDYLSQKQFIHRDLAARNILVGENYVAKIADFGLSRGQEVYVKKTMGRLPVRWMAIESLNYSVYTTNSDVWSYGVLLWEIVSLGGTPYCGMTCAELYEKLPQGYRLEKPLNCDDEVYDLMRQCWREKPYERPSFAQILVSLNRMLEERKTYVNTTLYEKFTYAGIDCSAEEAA
Summary of the method: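 Read-out is filter-bound 33P in poly(Glu,Tyr) 4:1 (10 μg/mL) after 30 min at ambient temperature with 4.0 μM ATP. Enzyme: 150 ng human GST-Tek (aa 773-1124) from insect cells, in Tris pH 7.5 with Mn2+/Mg2+ and vanadate. IC50 fitted linearly over four concentrations, usually 0.01-10 μM.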

c-Abl = c-Abl (Homo sapiens, UniProt P00519); experiment: Inhibitory activity against c-Abl (Example 207); format: biochemical; conditions: Examples 171 to 206
c-Abl, sequence (P00519 whole entry): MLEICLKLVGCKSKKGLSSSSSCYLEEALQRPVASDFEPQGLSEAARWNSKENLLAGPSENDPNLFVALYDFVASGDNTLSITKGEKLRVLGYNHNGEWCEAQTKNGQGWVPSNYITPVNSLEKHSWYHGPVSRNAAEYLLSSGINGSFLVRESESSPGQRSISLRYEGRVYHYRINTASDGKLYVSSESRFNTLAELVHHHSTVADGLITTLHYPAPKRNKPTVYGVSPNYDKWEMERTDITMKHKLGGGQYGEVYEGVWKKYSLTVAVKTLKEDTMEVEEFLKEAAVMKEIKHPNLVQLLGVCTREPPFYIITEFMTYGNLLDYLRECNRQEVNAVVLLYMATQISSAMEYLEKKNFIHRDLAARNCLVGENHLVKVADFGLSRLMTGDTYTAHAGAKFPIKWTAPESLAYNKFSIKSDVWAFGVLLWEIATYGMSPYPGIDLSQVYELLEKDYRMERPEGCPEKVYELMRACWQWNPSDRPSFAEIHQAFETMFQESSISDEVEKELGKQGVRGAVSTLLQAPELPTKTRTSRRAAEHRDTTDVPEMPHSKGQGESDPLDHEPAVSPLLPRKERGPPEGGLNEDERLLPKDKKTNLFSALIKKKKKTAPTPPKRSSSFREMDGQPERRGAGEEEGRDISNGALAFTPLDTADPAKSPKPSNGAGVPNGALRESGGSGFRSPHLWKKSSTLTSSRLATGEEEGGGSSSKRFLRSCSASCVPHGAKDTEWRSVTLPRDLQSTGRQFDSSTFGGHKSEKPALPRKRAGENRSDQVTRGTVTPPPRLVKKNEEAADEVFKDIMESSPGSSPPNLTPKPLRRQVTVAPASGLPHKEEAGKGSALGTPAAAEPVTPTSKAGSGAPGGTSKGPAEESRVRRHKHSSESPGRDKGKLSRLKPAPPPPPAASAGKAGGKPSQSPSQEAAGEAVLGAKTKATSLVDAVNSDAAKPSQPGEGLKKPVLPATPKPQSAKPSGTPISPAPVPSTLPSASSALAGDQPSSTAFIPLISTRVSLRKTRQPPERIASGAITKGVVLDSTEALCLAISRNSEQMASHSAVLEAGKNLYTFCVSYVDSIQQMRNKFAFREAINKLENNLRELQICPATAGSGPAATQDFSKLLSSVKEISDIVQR

[1] = Examples 171 to 206, read-out: FGFR3 inhibition at 10 μM

T1 sequence (P35968 20-1356): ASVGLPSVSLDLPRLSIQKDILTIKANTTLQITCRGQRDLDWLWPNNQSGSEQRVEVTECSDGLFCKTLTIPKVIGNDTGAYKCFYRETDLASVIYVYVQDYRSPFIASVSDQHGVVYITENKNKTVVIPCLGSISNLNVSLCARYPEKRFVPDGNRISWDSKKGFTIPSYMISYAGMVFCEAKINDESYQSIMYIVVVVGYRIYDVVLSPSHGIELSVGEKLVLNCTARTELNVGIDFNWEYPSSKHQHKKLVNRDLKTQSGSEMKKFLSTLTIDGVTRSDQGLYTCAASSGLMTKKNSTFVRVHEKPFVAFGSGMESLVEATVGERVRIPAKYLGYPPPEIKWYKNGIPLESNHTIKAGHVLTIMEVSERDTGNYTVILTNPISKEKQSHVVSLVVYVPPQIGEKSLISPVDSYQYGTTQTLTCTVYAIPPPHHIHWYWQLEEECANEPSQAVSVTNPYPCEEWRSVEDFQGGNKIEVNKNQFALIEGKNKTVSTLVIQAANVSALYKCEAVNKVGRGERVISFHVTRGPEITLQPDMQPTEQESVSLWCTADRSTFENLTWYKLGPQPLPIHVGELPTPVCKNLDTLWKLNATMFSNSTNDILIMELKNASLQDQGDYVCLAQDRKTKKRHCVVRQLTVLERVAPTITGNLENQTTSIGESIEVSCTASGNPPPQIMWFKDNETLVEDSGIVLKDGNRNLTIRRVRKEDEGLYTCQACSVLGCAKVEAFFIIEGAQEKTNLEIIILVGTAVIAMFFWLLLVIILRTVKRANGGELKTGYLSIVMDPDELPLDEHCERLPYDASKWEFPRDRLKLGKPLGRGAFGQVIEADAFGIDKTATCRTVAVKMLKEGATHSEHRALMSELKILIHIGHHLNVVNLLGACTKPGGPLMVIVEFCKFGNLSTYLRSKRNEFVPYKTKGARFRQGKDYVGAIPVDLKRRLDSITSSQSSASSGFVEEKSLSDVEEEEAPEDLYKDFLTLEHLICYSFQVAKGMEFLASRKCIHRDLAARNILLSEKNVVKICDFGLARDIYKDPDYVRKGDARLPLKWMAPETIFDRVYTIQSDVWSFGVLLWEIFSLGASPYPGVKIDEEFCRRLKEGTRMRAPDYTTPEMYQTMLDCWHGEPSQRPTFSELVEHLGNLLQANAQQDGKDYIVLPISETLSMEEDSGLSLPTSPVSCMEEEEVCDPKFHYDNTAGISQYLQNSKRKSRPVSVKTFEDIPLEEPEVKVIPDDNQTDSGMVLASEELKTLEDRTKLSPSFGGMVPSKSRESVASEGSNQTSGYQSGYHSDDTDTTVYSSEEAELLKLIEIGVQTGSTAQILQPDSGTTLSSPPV

Row | inhibition at 10 µM (KDR; Examples 1 to 169) [%] | inhibition at 10 µM (FGFR3 (K650E); Examples 1 to 169, read-out: FGFR3 (K650E) inhibition at 10 μM) [%] | inhibition at 10 µM (Tek) [%] | melting point [°C] | inhibition at 10 µM (KDR; Examples 171 to 206) [%] | inhibition at 10 µM (FGFR3 (K650E); [1]) [%] | inhibition at 10 µM (c-Abl) [%] | Structure (SMILES)
1 | 67 to 100 | 27 to 100 | 12 to 100 | 279 to 281 |  |  |  | CN1CCN(c2ccc(Nc3cc(NC(=O)Nc4cccc(Cl)c4Cl)ncn3)cc2)CC1 [Example 77, 1-(2,3-Dichloro-Phenyl)-3-{6-[4-(4-methyl-piperazin-1-yl)-phenylamino]-pyrimidin-4-yl}-urea]
2 |  |  |  |  | 87 to 100 | 56 to 98 | 79 to 100 | Cc1ccc(C(=O)Nc2cccc(C(F)(F)F)c2)cc1NC(=O)N(C)c1cc(Nc2ccc(N3CCN(C)CC3)cc2)ncn1 [Example 186, 4-Methyl-3-(3-methyl-3-{6-[4-(4-methyl-piperazin-1-yl)-phenylamino]-pyrimidin-4-yl}-ureido)-N-(3-trifluoromethyl-phenyl)-benzamide]
3 |  |  |  |  | 87 to 100 | 56 to 98 | 79 to 100 | Cc1ccc(NC(=O)c2cccc(C(F)(F)F)c2)cc1NC(=O)Nc1cc(Nc2ccc(N3CCN(C)CC3)cc2)ncn1 [Example 174, N-[4-Methyl-3-(3-{6-[4-(4-methyl-piperazin-1-yl)-phenylamino]-pyrimidin-4-yl}-ureido)-phenyl]-3-trifluoromethyl-benzamide]
4 |  |  |  |  | 87 to 100 | 56 to 98 | 79 to 100 | Cc1ccc(NC(=O)c2cccc(C(F)(F)F)c2)cc1NC(=O)N(Cc1cccs1)c1cc(Nc2ccc(N3CCN(C)CC3)cc2)ncn1 [Example 193, N-[4-Methyl-3-(3-{6-[4-(4-methyl-piperazin-1-yl)-phenylamino]-pyrimid-in-4-yl}-3-thiophen-2-ylmethyl-ureido)-phenyl]-3-trifluoromethyl-benzamide]
5 |  |  |  |  | 87 to 100 | 56 to 98 | 79 to 100 | CCN(CC)CCOc1ccc(Nc2cc(N(C)C(=O)Nc3cc(NC(=O)c4cccc(C(F)(F)F)c4)ccc3C)ncn2)cc1 [Example 183, N-[3-(3-{6-[4-(2-Diethylamino-ethoxy)-phenylamino]-pyrimidin-4-yl}-3-methyl-ureido)-4-methyl-Phenyl]-3-trifluoromethyl-benzamide]
6 | 67 to 100 |  | 12 to 100 | 161.5 to 163 |  |  |  | COc1ccc(Cl)c(NC(=O)N(C)c2cc(Nc3ccc(N4CCN(C)CC4)cc3)ncn2)c1Cl [Example 1, 3-(2,6-Dichloro-3-methoxy-phenyl)-1-methyl-1-{6-[4-(4-methyl-piperazin-1-yl)-phenylamino]-pyrimidin-4-yl}-urea]
7 |  |  |  |  | 87 to 100 | 56 to 98 | 79 to 100 | Cc1ccc(NC(=O)c2cccc(C(F)(F)F)c2)cc1NC(=O)N(C)c1cc(Nc2ccc(OCCN3CCN(C)CC3)cc2)ncn1 [Example 184, N-{4-Methyl-3-[3-methyl-3-(6-{4-[2-(4-methyl-piperazin-1-yl)-ethoxy]-phenylamino}-pyrimidin-4-yl)-ureido]-phenyl}-3-trifluoromethyl-benzamide]
8 |  |  |  |  | 87 to 100 | 56 to 98 | 79 to 100 | COc1cc(NC(=O)c2ccc(C)c(C(F)(F)F)c2)cc(NC(=O)N(C)c2cc(Nc3ccc(N4CCN(C)CC4)cc3)ncn2)c1 [Example 201, N-[3-Methoxy-5-(3-methyl-3-{6-[4-(4-methyl-piperazin-1-yl)-phenyl-amino]-pyrimidin-4-yl}-ureido)-phenyl]-4-methyl-3-trifluoromethyl-benzamide]
9 |  |  |  |  | 87 to 100 | 56 to 98 | 79 to 100 | Cc1ccc(NC(=O)c2cccc(C(F)(F)F)c2)cc1NC(=O)N(C)c1cc(Nc2cccc(OCCN(C)C)c2)ncn1 [Example 182, N-[3-(3-{6-[3-(2-Dimethylamino-ethoxy)-phenylamino]-pyrimidin-4-yl}-3-methyl-ureido)-4-methyl-phenyl]-3-trifluoromethyl-benzamide]
10 |  |  |  |  | 87 to 100 | 56 to 98 | 79 to 100 | Cc1ccc(NC(=O)c2cccc(C(F)(F)F)c2)cc1NC(=O)N(CCc1ccccn1)c1cc(Nc2ccccc2)ncn1 [Example 190, N-{4-Methyl-3-[3-(6-phenylamino-pyrimidin-4-yl)-3-(2-pyridin-2-yl-ethyl)-ureido]-phenyl}-3-trifluoromethyl-benzamide]
11 |  |  |  |  | 87 to 100 | 56 to 98 | 79 to 100 | CC(=O)Nc1cc(N(C)C(=O)Nc2cc(C(=O)Nc3ccc(CN4CCN(C)CC4)c(C(F)(F)F)c3)ccc2C)ncn1 [Example 205, 3-[3-(6-Acetylamino-pyrimidin-4-yl)-3-methyl-ureido]-4-methyl-N-[4-(4-methyl-piperazin-1-ylmethyl)-3-trifluoromethyl-phenyl]-benzamide]
12 |  |  |  |  | 87 to 100 | 56 to 98 | 79 to 100 | COc1ccc(NC(=O)c2ccc(CN3CCN(C)CC3)c(C(F)(F)F)c2)cc1NC(=O)N(C)c1cc(Nc2ccc(N3CCN(C)CC3)cc2)ncn1 [Example 198, N-[4-Methoxy-3-(3-methyl-3-{6-[4-(4-methyl-piperazin-1-yl)-phenyl-amino]-pyrimidin-4-yl}-ureido)-phenyl]-4-(4-methyl-piperazin-1-ylmethyl)-3-trifluoro-methyl-benzamide]
13 |  |  |  |  | 87 to 100 | 56 to 98 | 79 to 100 | COc1cc(NC(=O)c2ccc(CN3CCN(C)CC3)c(C(F)(F)F)c2)cc(NC(=O)N(C)c2cc(N)ncn2)c1 [Example 199, N-{3-[3-(6-Amino-pyrimidin-4-yl)-3-methyl-ureido]-5-methoxy-phenyl}-4-(4-methyl-piperazin-1-ylmethyl)-3-trifluoromethyl-benzamide]
14 |  |  |  |  | 87 to 100 | 56 to 98 | 79 to 100 | Cc1ccc(NC(=O)c2cccc(C(F)(F)F)c2)cc1NC(=O)N(CCc1ccccn1)c1cc(Nc2ccc(N3CCN(C)CC3)cc2)ncn1 [Example 191, N-[4-Methyl-3-[3-{6-[4-(4-methyl-piperazin-1-yl)-phenylamino]-pyrimid-in-4-yl]-3-(2-pyridin-2-yl-ethyl)-ureido]-phenyl}-3-trifluoromethyl-benzamide]
15 |  |  |  |  | 87 to 100 | 56 to 98 | 79 to 100 | Cc1ccc(NC(=O)c2cccc(C(F)(F)F)c2)cc1NC(=O)N(C)c1cc(Nc2ccc(C(=O)N3CCN(C)CC3)cc2)ncn1 [Example 187, N-[4-Methyl-3-(3-methyl-3-{6-[4-(4-methyl-piperazine-1-carbonyl)-phenylamino]-pyrimidin-4-yl}-ureido)-phenyl]-3-trifluoromethyl-benzamide]
16 |  |  |  |  | 87 to 100 | 56 to 98 | 79 to 100 | COC(=O)Nc1cc(N(C)C(=O)Nc2cc(C(=O)Nc3ccc(CN4CCN(C)CC4)c(C(F)(F)F)c3)ccc2C)ncn1 [Example 204, [6-(1-Methyl-3-{2-methyl-5-[4-(4-methyl-piperazin-1-ylmethyl)-3-trifluoromethyl-phenylcarbamoyl]-phenyl}-ureido)-pyrimidin-4-yl]-carbamic acid methyl ester]
17 |  |  |  |  | 87 to 100 | 56 to 98 | 79 to 100 | Cc1ccc(C(=O)Nc2ccc(CN3CCN(C)CC3)c(C(F)(F)F)c2)cc1NC(=O)N(C)c1cc(N)ncn1 [Example 206, 3-[3-(6-Amino-pyrimidin-4-yl)-3-methyl-ureido]-4-methyl-N-[4-(4-methyl-piperazin-1-ylmethyl)-3-trifluoromethyl-phenyl]-benzamide]
18 |  |  |  |  | 87 to 100 | 56 to 98 | 79 to 100 | Cc1ccc(NC(=O)c2cccc(C(F)(F)F)c2)cc1NC(=O)N(C)c1cc(Nc2ccccc2)ncn1 [Example 181, N-{4-Methyl-3-[3-methyl-3-(6-phenylamino-pyrimidin-4-yl)-ureido]-phenyl}-3-trifluoromethyl-benzamide]
19 |  |  |  |  | 87 to 100 | 56 to 98 | 79 to 100 | CC(=O)Nc1cc(N(C)C(=O)Nc2cc(NC(=O)c3ccc(CN4CCN(C)CC4)c(C(F)(F)F)c3)ccc2C)ncn1 [Example 202, N-[3-[3-(6-Acetylaminopyrimidin-4-yl)-3-methylureido]-4-methylphenyL]-4-(4-methylpiperazin-1-ylmethyl)-3-trifluoromethylbenzamide]
20 |  |  |  |  | 87 to 100 | 56 to 98 | 79 to 100 | Cc1ccc(NC(=O)c2cccc(C(F)(F)F)c2)cc1NC(=O)Nc1cc(Nc2ccc(OCCCN(C)C)cc2)ncn1 [Example 177, N-[3-(3-{6-[4-(3-Dimethylamino-propoxy)-phenylamino]-pyrimidin-4-yl}-ureido)-4-methyl-phenyl]-3-trifluoromethyl-benzamide]
